Structures are written as SMILES.

The target of one test is T1, dCK (Homo sapiens, UniProt P27707, C45S/C59S/C9S/S74E).
T1 construct: inferred from HisTrap purification with imidazole elution; made in house; host or cells: Escherichia coli BL21 pRIL
Put plainly: Affinity assay: Thermal Shift Assay (TSA), dCK thermal stabilization. The note with it: dCK protein (C9S, C45S, C59S, S74E); 5 sM of protein, 50 sM of compound, 2% DMSO; mean ± SD. The test is classed as binding. As for the experimental part: dCK protein contained three solvent exposed cysteines mutated to serines in order to generate better quality crystals (C9S, C45S, C59S) and a serine mutated to glutamic acid (S74E). The S74E mutation mimics the phosphorylated state of this serine, which favors the open conformation of the enzyme, making it competent for nucleoside binding to evaluate the binding affinity with compounds. BL21 pRIL Escherichia Coli cells were transformed with dCK-plasmid. Cells were grown in LB media containing 100 μg/ml ampicillin and 34 μg/ml chloramphenicol at 18° C. for 20 h after induction with 1 mM IPTG. Cells were re-suspended in 50 mM TRIS, pH 8, 500 mM NaCl, 30 mM imidazole and 10% glycerol buffer containing one EDTA free anti-protease tablet (Roche). After sonication and centrifugation (30,000×g), the supernatant was loaded on a 5 ml HisTrap FF column (GE healthcare) pre-equilibrated with resuspension buffer. Protein was then eluted by re-suspension buffer containing 500 mM imidazole. Protein eluted fractions were mixed and concentrated. Protein was further purified by size exclusion chromatography (superdex 200 16/600, GE healthcare) in 20 mM HEPES, pH 7.5, and 200 mM NaCl before concentration to 30 mg/ml and storage at −80° C.
Thermal Shift Assay (TSA) experiments were performed in triplicate in 384-well PCR white plates (Thermo Scientific, AB-3384) in the assay buffer containing 20 mM HEPES, pH 7.5 and 200 mM NaCl. Final concentrations were adjusted to 5 sM of protein, 50 sM of compound (final 2% DMSO) and dye diluted to 1:1000, as recommended by manufacturer (Protein Thermal Shift Dye, ThermoFisher Scientific). […] Plates were centrifuged at 1000 rpm for 2 min at 4° C. Thermal melting experiments were carried using a CFX-384 Connect RT-PCR (Bio-Rad). Plates were first equilibrated at 25° C.; then, the plates were heated from 25 to 95° C. by 0.5° C./min steps. Raw fluorescence data were treated, and the melting temperatures (Tm) were calculated using CFX Manager 3.1 software (Bio-Rad). ΔTm represents the difference in Tm between the protein in the presence of compound and the protein alone (both at 2% DMSO). Each experiment was performed at least twice (with technical triplicates) and data are presented as the mean f SD in Table 1.

Test [1] deals with CCRF-CEM cell line (T-cell acute lymphoblastic leukemia). The experiment in a line: Cellular assay: inhibition of CCRF-CEM cell proliferation in presence of dT and dC (CellTiter-Blue). The note with it: Homo sapiens, read-out: CELLULAR ASSAY IC50 (nM), 200 μM dT and 1 μM dC, 72 hours, mean ± SD. In kind it is cell-based. As for the experimental part:
The cellular assay was set up to assess the ability to inhibit dCK activity in a cellular model. The model was developed with a T-cell acute lymphoblastic leukemia cell line (CCRF-CEM), because of its high dependence on the salvage pathway, thus on dCK activity. Cellular assays were performed to assess the inhibition of cell proliferation under two conditions: i) in the presence of the molecule alone to determine the non-specific effect on cells, independent of dCK (non-specific toxicity) and ii) in the presence of an inhibitor of the De Novo pathway to determine the ability of molecules to inhibit dCK and decrease tumor proliferation (activity on dCK). The inhibitor of the De Novo pathway chosen for the experiments was thymidine (dT), a physiological inhibitor of ribonucleotide reductase which arrests cell proliferation in phase S. The dTTP produced via thymidine kinase from dT acts as a RNR inhibitor by an allosteric regulation of the R1 subunit (FIG. 1). The addition of the nucleoside deoxycytidine (dC) in the medium allows the rescue of cell proliferation by passing only through the salvage pathway, mediated by dCK. Therefore, cell proliferation under these conditions (+dT+dC) is dCK dependent and it is possible to determine the IC50 of dCK inhibitors on the inhibition of cell proliferation. Results are expressed as % cell proliferation relative to the control with DMSO in Table 1.
CCFR-CEM cells were grown at 37° C. in RPMI 1640 with L-glutamine, supplemented with 100 units/ml penicillin, […] streptomycin, and 10% heat-inactivated foetal calf serum. The experiments were carried out on 96-well plates under the following conditions: 14,000 cells per well, RPMI 1640 culture medium supplemented with 10% heat-inactivated foetal calf serum, 200 sM of dT, 1 sM of dC and a range of dilutions of each molecule ranging from 40 μM to 10 μM, depending on the activity of the molecules (final 0.2% DMSO). Cells were incubated for 72 hours under these different conditions and finally, incubated with 10 μl/well of CellTiter-Blue reagent (Promega) for 4 hours at 37° C. The amount of reduced dye formed by metabolically active cells was quantified by its fluorescence measured at 560 nm (excitation) and 590 nm (emission) in a microplate reader (CLARIOstar, BMG Labtech). A blank well without cells was used as a background control. Each experiment was performed at least three times (with technical triplicates) and data are presented as the mean f SD.
On the technique in general: Resazurin is reduced to fluorescent resorufin, in cell work by metabolically active cells.

Another test has as its system CCRF-CEM T-ALL cell line. Put plainly: In vivo systemic leukemia model: NSG mice inoculated intravenously with luciferase-expressing CCRF-CEM cells.

T1 sequence (P27707 whole entry C9S/C45S/C59S/S74E): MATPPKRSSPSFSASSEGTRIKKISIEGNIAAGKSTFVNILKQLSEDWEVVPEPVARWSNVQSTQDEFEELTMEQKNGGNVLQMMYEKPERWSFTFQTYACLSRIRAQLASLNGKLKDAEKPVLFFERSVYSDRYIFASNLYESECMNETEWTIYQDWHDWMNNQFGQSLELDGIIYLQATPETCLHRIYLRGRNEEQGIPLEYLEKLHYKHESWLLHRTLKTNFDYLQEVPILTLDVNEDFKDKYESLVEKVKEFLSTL
Method for CCRF-CEM T-ALL cell line: Healthy 6 to 9 weeks-old male mice received 0.1×10^6 luciferase transduced-CCRF-CEM cells in the tail vein on Day 0 and were randomly assigned in four groups to receive intraperitoneal injections from Day 3 (Vehicle (n=8), dT (n=8), OR0642 (n=9) and dT+OR0642 (n=9)). […] Doses administered were: dT at 1.5 g/Kg, OR0642 at 40 mg/Kg and dT+OR0642 at 1.5 g/Kg and 40 mg/Kg, respectively. Vehicle was saline solution (0.9% NaCl) supplemented with 10% Kolliphor EL. OR0642 was administered in its hydrochloride salt form. Drug administration protocol is detailed in FIG. 4. Bioluminescence analysis was performed once/week using PhotonIMAGER Optima (Biospace Lab) following addition of endotoxin-free luciferin (30 mg/kg, Promega). Peripheral blood was obtained at Day 21 to determine the fraction of human blasts using flow cytometry. […] Analyses were performed on a Life Science Research Fortessa flow cytometer with DIVA software (BD Biosciences). The number of ALL cells/L peripheral blood was determined by using CountBright beads (Invitrogen, C36950) using described protocol. Daily monitoring of mice for symptoms of disease (ruffled coat, hunched back, weakness and reduced motility) determined the time of killing for injected animals with signs of distress. Kaplan-Meier curves, bioluminescence quantifications and statistical analyses were generated using Prism (Graphpad Software). Bioluminescence data were presented as the mean f SEM. Comparison of bioluminescence data at Day 21 was performed using One way ANOVA Kruskal-Wallis Test and Dunn's Multiple Comparison Test. Comparison of hCD45 populations was performed using One way ANOVA Kruskal-Wallis Test and Dunn's Multiple Comparison Test. Median survival times were compared using Log-Rank (Mantel-Cox) Test.

In general, IC50 refers to the midpoint of a concentration-inhibition curve. Consider `CCCN(c1nc(-c2nc(N)cc(N)n2)cs1)c1cc(-c2ccc(S(=O)(=O)N3CCN(C)CC3)cc2)ccc1C` [OR0607, 2-(2-((4-Methyl-4′-((4-methylpiperazin-1-yl)sulfonyl)-[1,1′-biphenyl]-3-yl)(propyl)amino)thiazol-4-yl)pyrimidine-4,6-diamine], for which the “AFFINITY ASSAY +ΔTm (°)” value on dCK stood at 19.2 ± 0.6 °. In test [1], the IC50 was found to be 31 ± 27 nM.

In the case of `CCCN(c1nc(-c2nc(N)cc(N)n2)cs1)c1cc(-c2ccc(S(=O)(=O)N3CCN(CC(=O)O)CC3)cc2)ccc1C` [OR0649, 2-(4-((3′-((4-(4,6-Diaminopyrimidin-2-yl)thiazol-2-yl)(propyl)amino)-4′-methyl-[1,1′-biphenyl]-4-yl)sulfonyl)piperazin-1-yl)acetic acid], on dCK, the “AFFINITY ASSAY +ΔTm (°)” value was found to be 17.6 ± 1.3 °. Besides, the IC50 in test [1] was determined as 13400 ± 546 nM.

In the case of `CCCN(c1nc(-c2nc(N)cc(N)n2)cs1)c1cc(-c2ccc(S(=O)(=O)N3CCNCC3)nc2C(F)(F)F)ccc1C` [OR0658, 2-(2-((2-Methyl-5-(6-(piperazin-1-ylsulfonyl)-2-(trifluoromethyl)pyridin-3-yl)phenyl)(propyl)amino)thiazol-4-yl)pyrimidine-4,6-diamine], on dCK, the “AFFINITY ASSAY +ΔTm (°)” value turned out to be 22.4 ± 0.1 °. For the same compound, the IC50 in test [1] is 11.3 ± 2.1 nM.

Turning to `CCCN(c1nc(-c2nc(N)cc(N)n2)cs1)c1cc(-c2cnc(S(=O)(=O)N3CCN(C)CC3)cc2C(F)(F)F)ccc1C` [OR0656, 2-(2-((2-Methyl-5-(6-((4-methylpiperazin-1-yl)sulfonyl)-4-(trifluoromethyl)pyridin-3-yl)phenyl)(propyl)amino)thiazol-4-yl)pyrimidine-4,6-diamine], the “AFFINITY ASSAY +ΔTm (°)” value at dCK is reported as 21.3 ± 0.8 °. Further, the IC50 in test [1] is 3.8 ± 2 nM.

With `CCCN(c1nc(-c2nccc(N)n2)cs1)c1cc(-c2ccc(OCC(=O)N3CCN(C)CC3)cc2)ccc1C` [OR0597, 4-(4-Aminopyrimidin-2-yl)-N-(4-methyl-4′-(2-(4-methylpiperazin-1-yl)-2-oxoethoxy)-[1,1′-biphenyl]-3-yl)-N-propylthiazol-2-amine], the “AFFINITY ASSAY +ΔTm (°)” value on dCK is reported as 17.1 ± 0.1 °.

Take `CCCN(c1nc(-c2nc(N)cc(N)n2)cs1)c1cc(-c2cnc(S(=O)(=O)N3CCN(C)CC3)cc2C)ccc1C` [OR0652, 2-(2-((2-Methyl-5-(4-methyl-6-((4-methylpiperazin-1-yl)sulfonyl)pyridin-3-yl)phenyl)(propyl)amino)thiazol-4-yl)pyrimidine-4,6-diamine]: the “AFFINITY ASSAY +ΔTm (°)” value at dCK is given as 19.2 ± 0.1 °. Also, the IC50 in test [1] stood at 7.3 ± 2.5 nM.

On to `Cc1ccc(Br)cc1N(CC(C)C)c1nc(-c2nc(N)cc(N)n2)cs1` [OR0637-1, 2-(2-((5-Bromo-2-methylphenyl)(isobutyl)amino)thiazol-4-yl)pyrimidine-4,6-diamine], for which the “AFFINITY ASSAY +ΔTm (°)” value at dCK amounted to 14.9 ± 0.2 °. The IC50 in test [1] was found to be 8310 ± 1870 nM.

Regarding `CCCN(c1nc(-c2nc(N)cc(N)n2)cs1)c1cc(Br)ccc1C` [OR0652-1, 2-(2-((5-Bromo-2-methylphenyl)(propyl)amino)thiazol-4-yl)pyrimidine-4,6-diamine], the “AFFINITY ASSAY +ΔTm (°)” value at dCK came to 13.9 ± 0.2 °. Moreover, the IC50 in test [1] amounted to 11300 ± 1370 nM.

Consider `CCCN(c1nc(-c2nc(N)cc(N)n2)cs1)c1cc(-c2ccc(S(=O)(=O)N3CCN(C)CC3)nc2C)ccc1C` [OR0653, 2-(2-((2-Methyl-5-(2-methyl-6-((4-methylpiperazin-1-yl)sulfonyl)pyridin-3-yl)phenyl)(propyl)amino)thiazol-4-yl)pyrimidine-4,6-diamine], for which, at dCK, the “AFFINITY ASSAY +ΔTm (°)” value came out at 21.6 ± 0.4 °. Further, the IC50 in test [1] is 2.8 ± 1.3 nM.

Turning to `CCCN(c1nc(-c2nc(N)cc(N)n2)cs1)c1cc(-c2ccc(S(=O)(=O)N3CCN(C)CC3)nc2C(F)(F)F)ccc1C` [OR0657, 2-(2-((2-Methyl-5-(6-((4-methylpiperazin-1-yl)sulfonyl)-2-(trifluoromethyl)pyridin-3-yl)phenyl)(propyl)amino)thiazol-4-yl)pyrimidine-4,6-diamine], the “AFFINITY ASSAY +ΔTm (°)” value at dCK is on record as 22.0 ± 0.4 °. The IC50 in test [1] was found to be 1.6 ± 0.9 nM.

`CCCN(c1nc(-c2nc(N)cc(N)n2)cs1)c1cc(-c2cnc(OC)cc2C(F)(F)F)ccc1C` [OR0654, 2-(2-((5-(6-Methoxy-4-(trifluoromethyl)pyridin-3-yl)-2-methylphenyl)(propyl)amino)thiazol-4-yl)pyrimidine-4,6-diamine]: the “AFFINITY ASSAY +ΔTm (°)” value at dCK stood at 18.3 ± 0.4 °. Further, the IC50 in test [1] is 610 ± 153 nM.

Take `Cc1ccc(-n2cc(CNS(C)(=O)=O)nn2)cc1N(CC(C)C)c1nc(-c2nc(N)cc(N)n2)cs1` [OR0609, N-((1-(3-((4-(4,6-Diaminopyrimidin-2-yl)thiazol-2-yl)(isobutyl)amino)-4-methylphenyl)-1H-1,2,3-triazol-4-yl)methyl) methanesulfonamide]: the “AFFINITY ASSAY +ΔTm (°)” value at dCK worked out at 13.5 ± 0.7 °. The IC50 in test [1] was determined as 3180 ± 611 nM.

For `CCCN(c1nc(-c2nc(N)cc(N)n2)cs1)c1cc(-c2ccc(S(=O)(=O)N3CCN(C)CC3)nc2)ccc1C` [OR0627, 2-(2-((2-Methyl-5-(6-((4-methylpiperazin-1-yl)sulfonyl)pyridin-3-yl)phenyl)(propyl)amino)thiazol-4-yl)pyrimidine-4,6-diamine], the “AFFINITY ASSAY +ΔTm (°)” value at dCK is 17.5 ± 0.4 °. For the same compound, in test [1], the IC50 was found to be 48 ± 17 nM.

On to `CCCN(c1nc(-c2nc(N)cc(N)n2)cs1)c1cc(-c2cnc(O)cc2C(F)(F)F)ccc1C` [OR0655, 2-(2-((5-(6-Hydroxy-4-(trifluoromethyl)pyridin-3-yl)-2-methylphenyl)(propyl)amino)thiazol-4-yl)pyrimidine-4,6-diamine], for which, at dCK, the “AFFINITY ASSAY +ΔTm (°)” value was found to be 19.0 ± 0.0 °. Further, the IC50 in test [1] was determined as 251 ± 36 nM.

For the compound `Cc1cn([C@H]2C[C@H](O)[C@@H](CO)O2)c(=O)[nH]c1=O` [dT, 1-[(2R,4S,5R)-4-Hydroxy-5-(hydroxymethyl)oxolan-2-yl]-5-methylpyrimidine-2,4(1H,3H)-dione, reference compound], the “effect on disease progression / disease burden (bioluminescence)” value in the test on CCRF-CEM T-ALL cell line (CCRF-CEM leukemia bearing NSG mice, dT 1.5 g/Kg, OR0642 40 mg/Kg (hydrochloride salt) i.p., FIG. 5) is recorded as “scarcely reduced the disease burden”. In addition, in the test on CCRF-CEM T-ALL cell line (the two components administered separately, FIG. 8), the “day around which most of the mice died” value was approximately 26 days.

On to `CCCN(c1nc(-c2nc(N)cc(N)n2)cs1)c1cc(-c2ccc(OCC(=O)N3CCN(C)CC3)nc2)ccc1C` [OR0630, 2-((5-(3-((4-(4,6-Diaminopyrimidin-2-yl)thiazol-2-yl)(propyl)amino)-4-methylphenyl)pyridin-2-yl)oxy)-1-(4-methylpiperazin-1-yl)ethan-1-one], for which, on dCK, the “AFFINITY ASSAY +ΔTm (°)” value amounted to 17.4 ± 0.2 °.

Source of the values: US20250092032A1, “DEOXYCYTIDINE KINASE INHIBITORS” (CENTRE NATIONAL DE LA RECHERCHE SCIENTIFIQUE, priority 2022, published 2025).
